Test results reported in ChEMBL document CHEMBL2010699, “Novel substituted 9-norbornylpurines and their activities against RNA viruses” (Bioorg Med Chem Lett, 2012).
≈ marks a conversion by molar mass, not a printed value. Calls of active or inactive are those of the source. The rule behind the calls is not given here.

Assays:
[1] = Solubility of the compound in water at 20 degC by UV spectrophotometry; type: physicochemical
[2] = Cytotoxicity against african green monkey Vero cells assessed as inhibition of host metabolism by MTS assay; type: cell-based; conditions: chlorocebus sabaeus
Chikungunya virus = assay: Antiviral activity against Chikungunya virus assessed as suppression of viral replication; type: functional
Coxsackievirus B3 [3] = assay: Antiviral activity against Coxsackievirus B3 infected in african green monkey Vero cells assessed as inhibition virus-induced cell death by MTS assay; type: functional, organism-based; conditions: Enterovirus B
Hepatitis C virus = assay: Antiviral activity against Hepatitis C virus assessed as suppression of viral replication; type: functional, organism-based; conditions: Hepacivirus hominis
[4] = Selectivity index, ratio of CC50 for african green monkey Vero cells to EC50 for Coxsackievirus B3; type: toxicity, cell-based; conditions: read-out: Ratio CC50/EC50
Coxsackievirus B3 [5] = assay: Antiviral activity against Coxsackievirus B3 infected in african green monkey vero cells assessed as inhibition of virus-induced cytopathic effect by microscopic estimation; type: functional, organism-based
Vero = assay: Cytotoxicity against african green monkey Vero cells assessed as change in morphology of the cells by microscopic analysis; type: cell-based; conditions: chlorocebus sabaeus

SMILES	solubility [1] [mg/mL]	CC50 [2] [µM]	Activity (Chikungunya virus)	EC50 (Coxsackievirus B3 [3]) [µM]	EC90 (Coxsackievirus B3 [3]) [µM]	Activity (Hepatitis C virus)	selectivity ratio [4]	Activity (Coxsackievirus B3 [5])	Activity (Vero)
Clc1ncnc2c1ncn2C1CC2CCC1C2 (stereo unspecified)	0.53 (≈ 2.13 mM)								
O=C(OC1CC2CC1CC2n1cnc2c(Cl)ncnc21)c1ccccc1 (stereo unspecified)		> 542	inactive	> 150	> 150	inactive			
O=C(OC1CC2CC1C(n1cnc3c(Cl)ncnc31)C2)c1ccccc1 (stereo unspecified)		45	inactive	35	> 45	inactive	1.3		
C[C@@]1(O)[C@H](O)[C@@H](CO)O[C@H]1n1ccc(N)nc1=O				94	179				
CCCCCC(=O)O[C@H]1C[C@H]2C[C@@H]1[C@H](n1cnc3c(Cl)ncnc31)C2 (relative stereo)		70	inactive	> 70	> 70	inactive	< 1		
CCCCCCCC(=O)O[C@H]1C[C@H]2C[C@@H]1[C@H](n1cnc3c(Cl)ncnc31)C2 (relative stereo)		50	inactive	> 50	> 50	inactive	< 1		
CCCCCCCCCC(=O)O[C@H]1C[C@H]2C[C@@H]1[C@H](n1cnc3c(Cl)ncnc31)C2 (relative stereo)		44	inactive	> 44	> 44	inactive	< 1		
CCCCCC(=O)O[C@H]1C[C@H]2C[C@@H]1C[C@@H]2n1cnc2c(Cl)ncnc21 (relative stereo)		60	inactive	34	56	inactive	1.8	Active	Non-toxic
CCCCCCCC(=O)O[C@H]1C[C@H]2C[C@@H]1C[C@@H]2n1cnc2c(Cl)ncnc21 (relative stereo)		52	inactive	> 52	> 52	inactive	< 1		
CCCCCCCCCC(=O)O[C@H]1C[C@H]2C[C@@H]1C[C@@H]2n1cnc2c(Cl)ncnc21 (relative stereo)		47	inactive	32	> 47	inactive	1.5	Active	Non-toxic
CO[C@H]1C[C@H]2C[C@@H]1C[C@@H]2n1cnc2c(Cl)ncnc21 (relative stereo)		> 718	inactive	27	37	inactive	> 27	Active	Non-toxic
CCCCCO[C@H]1C[C@H]2C[C@@H]1C[C@@H]2n1cnc2c(Cl)ncnc21 (relative stereo)		32	inactive	21	> 32	inactive	1.5		
CCCCCCO[C@H]1C[C@H]2C[C@@H]1C[C@@H]2n1cnc2c(Cl)ncnc21 (relative stereo)		27	inactive	> 27	> 27	inactive	< 1		
Clc1ncnc2c1ncn2[C@H]1C[C@H]2C[C@@H]1C[C@@H]2OC1CCCCC1 (relative stereo)		22	inactive	> 22	> 22	inactive	< 1		
Clc1ncnc2c1ncn2[C@H]1C[C@H]2C[C@@H]1C[C@@H]2Oc1ccccc1 (relative stereo)		50	inactive	> 50	> 50	inactive	< 1		
Clc1ncnc2c1ncn2[C@@H]1C[C@@H]2C[C@H]1[C@@H](Oc1ccccc1)C2 (relative stereo)		> 587	inactive	> 150	> 150	inactive			
Oc1ccc(O[C@H]2C[C@H]3C[C@@H]2C[C@@H]3n2cnc3c(Cl)ncnc32)cc1 (relative stereo)		217	inactive	58		inactive	3.7		
OCCO[C@H]1C[C@H]2C[C@@H]1C[C@@H]2n1cnc2c(Cl)ncnc21 (relative stereo)		> 648	inactive	37		inactive	> 18	Active	Non-toxic
OCCCO[C@H]1C[C@H]2C[C@@H]1C[C@@H]2n1cnc2c(Cl)ncnc21 (relative stereo)		> 620	inactive	47		inactive	> 13	Active	Non-toxic
OCCCCO[C@H]1C[C@H]2C[C@@H]1C[C@@H]2n1cnc2c(Cl)ncnc21 (relative stereo)		> 594	inactive	37	53	inactive	> 16	Active	Non-toxic
OCCCCCO[C@H]1C[C@H]2C[C@@H]1C[C@@H]2n1cnc2c(Cl)ncnc21 (relative stereo)		> 570	inactive	22	30	inactive	> 26	Active	Non-toxic
OCCOCCO[C@H]1C[C@H]2C[C@@H]1C[C@@H]2n1cnc2c(Cl)ncnc21 (relative stereo)	7.46 (≈ 21.1 mM)	> 567	inactive	42	60	inactive	> 14	Active	Non-toxic
OCCO[C@H]1C[C@H]2C[C@@H]1[C@H](n1cnc3c(Cl)ncnc31)C2 (relative stereo)		> 648	inactive	29	37	inactive	> 22	Active	Non-toxic
OCCO[C@@H]1C[C@H]2C[C@@H]1C[C@@H]2n1cnc2c(Cl)ncnc21 (relative stereo)	4.57 (≈ 14.8 mM)	> 648	inactive	16	32	inactive	> 41	Active	Non-toxic
OCCO[C@@H]1C[C@H]2C[C@@H]1[C@H](n1cnc3c(Cl)ncnc31)C2 (relative stereo)	4.69 (≈ 15.2 mM)	> 648	inactive	13	22	inactive	> 50	Active	Non-toxic
